Starred links: 1 amine or outer side, 2 acyl side, 3 side chain; linkers in the order of their positions; H or OH if unused. Positions of bridges follow the written chain, without caps; N, C: chain ends. Non-standard residues stand in square brackets, D forms with d. Residues, ends and D or L forms follow the SMILES beside them. ξ: configuration not given here. X58 = O=C([C@@H]1[C@H](OCC=[*:3])CCN1[*:1])[*:2]; Ala(imidazol-2-yl) = N[C@@H](Cc1ncc[nH]1)C(=O)O; Trp(5-F) = N[C@@H](Cc1c[nH]c2ccc(F)cc12)C(=O)O; dPro(cis-4-NH2) = N[C@H]1CN[C@@H](C(=O)O)C1; X3 = O=C(CCSCc1cc(F)cc(CSCCN[*:1])c1)[*:2]; X33 = CC(C)C(N[*:1])c1ncc(C(=O)[*:2])[nH]1; Pro(cis-4-F) = O=C(O)[C@@H]1C[C@H](F)CN1; X12 = O=C([C@H](CCCCC=[*:3])N[*:1])[*:2]; X4 = O=C(CCSCc1cccc(CSCCN[*:1])c1)[*:2]; X64 = C[C@H](N[*:1])c1ncc(C(=O)[*:2])s1; mXylylene = c1cc(C[*:1])cc(C[*:2])c1; AEF = NCCOc1ccc(C[C@H](N)C(=O)O)cc1; Adipoyl = O=C(CCCCC(=O)[*:2])[*:1]; cisHyp = O=C(O)[C@@H]1C[C@H](O)CN1; ξAla(CF3) = NC(CC(F)(F)F)C(=O)O; aThr = C[C@H](O)[C@H](N)C(=O)O; Suc = O=C(CCC(=O)[*:2])[*:1]; αMeP = C[C@@]1(C(=O)O)CCCN1; dOrn = NCCC[C@@H](N)C(=O)O; Mpa = O=C(O)CCS
molecular target: PCSK9 (Homo sapiens (Human), UniProt Q8NBP7); assay: PCSK9 Alexa FRET Standard assay (displacement of AlexaFluor647 tagged cyclic peptide Reagent A); format: binding; conditions: PCSK9 Alexa FRET Standard assay, 0.5 nM PCSK9, 20 nM AF cyclic peptide Reagent A; read-out: IC50
Sequence (Q8NBP7 153-692): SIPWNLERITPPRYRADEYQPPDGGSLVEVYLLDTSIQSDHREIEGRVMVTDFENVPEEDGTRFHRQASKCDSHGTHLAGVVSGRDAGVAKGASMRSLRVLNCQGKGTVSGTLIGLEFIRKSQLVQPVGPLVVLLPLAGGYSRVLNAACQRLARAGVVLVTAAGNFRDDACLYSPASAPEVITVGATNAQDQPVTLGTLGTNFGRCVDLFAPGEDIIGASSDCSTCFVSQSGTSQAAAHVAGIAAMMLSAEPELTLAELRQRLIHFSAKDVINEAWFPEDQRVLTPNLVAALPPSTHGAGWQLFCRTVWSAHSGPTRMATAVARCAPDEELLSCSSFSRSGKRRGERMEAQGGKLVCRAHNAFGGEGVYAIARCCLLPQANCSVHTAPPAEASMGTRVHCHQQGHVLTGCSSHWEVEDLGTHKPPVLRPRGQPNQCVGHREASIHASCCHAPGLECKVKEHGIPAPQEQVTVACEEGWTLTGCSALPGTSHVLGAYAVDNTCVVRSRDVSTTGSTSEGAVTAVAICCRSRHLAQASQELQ
Procedure, shortened: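 TR-FRET displacement: 0.5 nM biotinylated PCSK9 with 1.25 nM Strep-Eu and 20 nM AlexaFluor-tagged cyclic peptide (final) in 50 mM HEPES pH 7.4, 0.15 M NaCl, 5 mM CaCl2, 0.01% BSA, 0.01% P20, ≥2 h at room temperature. IC50 from sigmoidal fit, converted to Ki via peptide KD; falling Eu counts flagged false positives.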

SMILES | IC50 [µM]
COc1ccc(C[C@@H]2NC(=O)[C@@H]([C@H](C)O)NC(=O)[C@H]3C[C@@H](N)CN3C(=O)[C@H](Cc3c[nH]c4ccc(F)cc34)NC(=O)[C@H](Cc3c[nH]c4ccc(F)cc34)NC(=O)[C@@H](C)NC(=O)[C@H](CCCCN)NC(=O)CCSCc3cccc(c3)CSCCNC(=O)[C@]3(C)CCCN3C2=O)cc1 [Compound 083] (cyclo(K[dA][Trp(5-F)][Trp(5-F)][dPro(cis-4-NH2)][dT]Y(Me)[αMeP][X4])) | 0.1 to 1
COc1ccc(C[C@@H]2NC(=O)[C@H](Cc3ncc[nH]3)NC(=O)[C@H](CC(=O)O)NC(=O)[C@H](Cc3c[nH]c4ccc(F)cc34)NC(=O)[C@H](Cc3c[nH]c4ccc(F)cc34)NC(=O)[C@@H](C)NC(=O)C(CC(F)(F)F)NC(=O)CCSCc3cccc(c3)CSCCNC(=O)[C@]3(C)CCCN3C2=O)cc1 (some centres unmarked) [Compound 444] (cyclo(D[Ala(imidazol-2-yl)]Y(Me)[αMeP][X4][ξAla(CF3)][dA][Trp(5-F)][Trp(5-F)])) | 21 to 50
COc1ccc(C[C@@H]2NC(=O)[C@H]([C@@H](C)O)NC(=O)[C@@H]3C[C@H](F)CN3C(=O)[C@H](Cc3c[nH]c4ccc(F)cc34)NC(=O)[C@H](Cc3c[nH]c4ccc(F)cc34)NC(=O)[C@@H](C)NC(=O)[C@H](CCCCN)NC(=O)[C@@H](NC(C)=O)CC(=O)NCc3ccccc3C[C@@H](C(N)=O)NC(=O)[C@]3(C)CCCN3C2=O)cc1 [Compound 079] | 1 to 12.1
C[C@@]12CCCN1C(=O)[C@H](Cc1ccc(O)cc1)NC(=O)[C@H](Cc1cnc[nH]1)NC(=O)[C@H](CC(=O)O)NC(=O)[C@H](Cc1c[nH]c3ccc(F)cc13)NC(=O)[C@H](Cc1c[nH]c3ccc(F)cc13)NC(=O)CNC(=O)[C@@H](CCCN)NC(=O)CCSCc1cccc(c1)CSC[C@@H](C(N)=O)NC2=O [Compound 356] ([Mpa][dOrn]G[Trp(5-F)][Trp(5-F)]DHY[αMeP]C-NH2; linker 1-10 via mXylylene) | 21 to 50
COc1ccc(C[C@@H]2NC(=O)[C@H]([C@H](C)O)NC(=O)[C@@H]3C[C@H](F)CN3C(=O)[C@H](Cc3c[nH]c4ccc(F)cc34)NC(=O)[C@H](Cc3c[nH]c4ccc(F)cc34)NC(=O)[C@@H](C)NC(=O)CCCCC(=O)NCCOc3ccc(cc3)C[C@@H](C(N)=O)NC(=O)[C@]3(C)CCCN3C2=O)cc1 [Compound 099] ([dA][Trp(5-F)][Trp(5-F)][Pro(cis-4-F)][aThr]Y(Me)[αMeP][AEF]-NH2; linker N-8 via Adipoyl) | 21 to 50
COc1ccc(C[C@@H]2NC(=O)[C@H]([C@H](C)O)NC(=O)[C@@H]3CCCc4cn(nn4)CCCC[C@H](NC(=O)[C@@H](C)NC(=O)[C@H](CCCCN)NC(=O)CCSCc4cccc(c4)CSCCNC(=O)[C@]4(C)CCCN4C2=O)C(=O)N[C@@H](Cc2c[nH]c4ccc(F)cc24)C(=O)N3)cc1 [Compound 526] | 0.00011 to 0.1
COc1ccc(C[C@@H]2NC(=O)[C@H](Cc3cnc[nH]3)NC(=O)[C@H](CC(=O)O)NC(=O)[C@H](Cc3c[nH]c4ccc(F)cc34)NC(=O)[C@H](Cc3c[nH]c4ccc(F)cc34)NC(=O)[C@@H](C)NC(=O)CCC(=O)NCCOc3ccc(cc3)C[C@@H](C(N)=O)NC(=O)[C@]3(C)CCCN3C2=O)cc1 [Compound 436] ([dA][Trp(5-F)][Trp(5-F)]DHY(Me)[αMeP][AEF]-NH2; linker N-8 via Suc) | 21 to 50
C[C@@H]1NC(=O)[C@H](Cc2c[nH]c3ccc(F)cc23)NC(=O)[C@H](Cc2c[nH]c3ccc(F)cc23)NC(=O)[C@@H](C)NC(=O)[C@H](CCCCN)NC(=O)CCSCc2cccc(c2)CSC[C@@H](C(N)=O)NC(=O)[C@]2(C)CCCN2C(=O)[C@H](Cc2ccc(O)cc2)NC(=O)C2=CN=C1S2 [Compound 460] ([Mpa]K[dA][Trp(5-F)][Trp(5-F)][X64]Y[αMeP]C-NH2; linker 1-9 via mXylylene) | 0.00011 to 0.1
CC(=O)N[C@H]1CCCC/C=C/CO[C@@H]2CCN(C(=O)[C@H](Cc3ccc(O)cc3)NC(=O)[C@H](Cc3cnc[nH]3)NC(=O)[C@H](CC(=O)O)NC(=O)[C@H](Cc3c[nH]c4ccc(F)cc34)NC(=O)[C@H](Cc3c[nH]c4ccc(F)cc34)NC(=O)CNC(=O)[C@H](CCCCN)NC1=O)[C@@H]2C(N)=O [Compound 469] (Ac-[X12]KG[Trp(5-F)][Trp(5-F)]DHY[X58]-NH2; staple (E) 1-9) | 21 to 50
CC(C)C1NC(=O)CCSCc2cccc(c2)CSC[C@@H](C(N)=O)NC(=O)[C@]2(C)CCCN2C(=O)[C@H](Cc2ccc(O)cc2)NC(=O)[C@H](Cc2c[nH]cn2)NC(=O)[C@H](CC(=O)O)NC(=O)[C@H](Cc2c[nH]c3ccc(F)cc23)NC(=O)[C@H](Cc2c[nH]c3ccc(F)cc23)NC(=O)c2cnc1[nH]2 (some centres unmarked) [Compound 450] ([Mpa][X33][Trp(5-F)][Trp(5-F)]DHY[αMeP]C-NH2; linker 1-9 via mXylylene) | 0.1 to 1
COc1ccc(C[C@@H]2NC(=O)[C@@H]([C@H](C)O)NC(=O)[C@@H]3C[C@H](O)CN3C(=O)[C@H](Cc3c[nH]c4ccc(F)cc34)NC(=O)[C@H](Cc3c[nH]c4ccc(F)cc34)NC(=O)[C@@H](C)NC(=O)[C@H](CCCCN)NC(=O)CCSCc3cc(F)cc(c3)CSCCNC(=O)[C@]3(C)CCCN3C2=O)cc1 [Compound 086] (cyclo(K[dA][Trp(5-F)][Trp(5-F)][cisHyp][dT]Y(Me)[αMeP][X3])) | 21 to 50
